Reference: US11130762B2, “Azaaryl derivative, preparation method therefor, and application thereof for use in pharmacy” (Abbisko Therapeutics Co., Ltd., priority 2017, dated 2021)

Legend:
[1] = test system: M-07e human cytomegalic leukemia cells; assay: Cell proliferation (Cell Titer Glo), M-07e cells with SCF (KIT); format: cell-based; settings: 72 h, 3 days, CTG, * = average of multiple tests, read-out: Cytological experiment KIT IC50
Description: (§1) D. CSF-1R-Related Cell Proliferation Experiment
(§2) Functional effects of compounds on the proliferation of several cell lines were evaluated by Cell Titer Glo (CTG) studies in the present invention, and effects of the compounds on the proliferation of different cells were evaluated to determine the selectivity degree of the compounds. In the experiment, M-07e human cytomegalic leukemia cells (cat. No. CBP60791) from Nanjing Kebai Biotechnology Co., Ltd. were cultured in an incubator under conditions of RPMI1640 (Gibco, cat. No. 11875-119), 20% fetal bovine serum (Gibco, 10099-141), human 10 ng/mL GM-CSF granulocyte macrophage colony-stimulating factors (R&D, cat. No. 215-GM-010), 37° C., and 5% CO2; and Kasumi-1 human acute myeloblastic leukemia cells (cat. No. CBP60524) were cultured in an incubator under conditions of RPMI1640 (Gibco, cat. No. 11875-119), 20% fetal bovine serum (Gibco, 10099-141), 37° C., and 5% CO2: NCI-H1703 human non-small cell lung squamous carcinoma cells (cat. No. CBP60115) were cultured in an incubator under conditions of RPMI1640 (Gibco, cat. No. 11875-119), 10% fetal bovine serum (Gibco, 10099-141), 37° C., and 5% CO2; MV-4-11 human acute monocytic leukemia cells (cat. No. CBP60522) were cultured in an incubator under conditions of IMDM (Invitrogen, cat. No. 12440053), 20% fetal bovine serum (Gibco, 10099-141), 37° C., and 5% CO2. Since ATP is an index for viable cell metabolism, CTG (Promega, #G7573) reagent is a homogeneous detection method for detecting the number of viable cells in the culture by quantifying ATP. Therefore, compound-mediated inhibition for cell proliferation/survival was evaluated by quantifying ATP content in cells, and the specific experimental process was as follows.
I) M-07e Human Cytomegalic Leukemia Cell:
1. The cells were plated into a tissue-culture-medium-treated 96-well plate (Costar #3904) with 3500 cells/well/80 μL fresh culture medium, and cultured for 24 hrs;
(§3) 2. the next day, 10 μL of culture medium containing testing compound with 10-fold of final concentration was added to each well:
3. 10 μL of culture medium containing SCF recombinant human stem cell factor (R&D, cat. No. 7466-SC-010) with 10-fold of the final concentration was then added to each well;
4. the dosage effect was evaluated by testing 4-fold serial dilutions of the compound, which started from 18 μM;
5. after the cells were incubated for 3 days at 37° C. and 5% CO2, the inhibition on cell survival was quantified after 50 μL of CTG was added and the luminescence assay was performed;
6. the compound concentration leading to half maximal inhibitory (IC50) and the compound concentration leading to absolute half maximal inhibitory (Absolute IC50) were measured by a plate reader (M1000, Tecan) and a four-parameter curve fit in Graphpad Prism 7.

[2] = test system: NCI-H1703 human non-small cell lung squamous carcinoma cells; assay: Cell proliferation (Cell Titer Glo), NCI-H1703 cells (PDGFRA); format: cell-based; settings: 72 h, 3 days, CTG, * = average of multiple tests, read-out: Cytological experiment PDGFRA IC50
Description: as §1, §2
II) NCI-H1703 Human Non-Small Cell Lung Squamous Carcinoma Cell
1. The cells were inoculated into a tissue-culture-medium-treated 96-well plate (Costar #3904) with 5000 cells/well/90 μL fresh culture medium, and cultured for 24 hrs;
as §3
(§4) 3. the dosage effect was evaluated by testing 3-fold serial dilutions of the compound, which started from 18 μM;
4. after the cells were incubated for 3 days at 37° C. and 5% CO2, the inhibition on cell survival was quantified after 50 μL of CTG was added and the luminescence assay was performed:
(§5) 5. the compound concentration leading to half maximal inhibitory (IC50) and the compound concentration leading to absolute half maximal inhibitory (Absolute IC50) were measured by a plate reader (M1000, Tecan) and a four-parameter curve fit in Graphpad Prism 7.

[3] = test system: MV-4-11 human acute monocytic leukemia cells; assay: Cell proliferation (Cell Titer Glo), MV-4-11 cells (FLT3); format: cell-based; settings: MV4-11, 72 h, 3 days, CTG, * = average of multiple tests, read-out: Cytological experiment FLT3 IC50
Description: as §1, §2
III) MV-4-11 Human Acute Monocytic Leukemia Cell
1. The cells were inoculated into a tissue-culture-medium-treated 96-well plate (Costar #3904) with 5000 cells/well/90 μL fresh culture medium, and cultured for 24 hrs:
2. the next day, 10 μL of culture medium containing testing compound with 10-fold of final concentration was added to each well;
as §4
4. after the cells were incubated for 3 days at 37° C. and 5% CO2, the inhibition on cell survival was quantified after 50 μL of CTG was added and the luminescence assay was performed;
as §5

KIT kinase = KIT kinase (Homo sapiens, UniProt P10721); assay: KIT in vitro biochemical kinase study (Caliper EZ Reader); settings: Caliper mobility shift; read-out: Enzymatic experiment KIT IC50
Description: B. KIT/PDGFRA In Vitro Biochemical Kinase Study
1. Preparation of 1-Fold Kinase Buffer and Stop Solution
1.2 stop solution: 100 mM HEPES, pH 7.5, 0.015% Brij-35, 0.2% Coating Reagent #3, 50 mM EDTA
2. Preparation of Compound Solution
2.1 Dilution of Compound Solution
1) The final concentration of the compound solution was 40 μM, and the concentration of the prepared stock solution was 50 times of the final concentration, i.e., 2 mM.
2) 80 μL of 100% DMSO was added to the second well of the 96-well plate, then 20 μL of 10 mM compound solution was added, and thereby 2 mM compound solution was prepared, 60 μL of 100% DMSO was added to other wells, 20 μL of compound was taken from the second well, added to the third well and diluted by 4 times. This serial 4-time dilution was conducted in sequence for the total of 10 concentrations.
2.2 5-Fold Compound Solution Transferred to a Reaction Plate
1) 10 μL of solution was taken from each well of the above 96-well plate and added to another 96-well plate, and 90 μL of kinase buffer was added.
2) 5 μL of solution was taken from the above 96-well plate and added to a 384-well reaction plate.
1) KIT/PDGFRA kinase was added to the 1-fold kinase buffer solution to obtain a 2.5-fold kinase solution.
2) FAM-labeled polypeptide and ATP were added to the 1-fold kinase buffer solution to obtain a 2.5-fold substrate solution.
3) 10 μL of 2.5-fold kinase solution was added to the 384-well reaction plate, which already contained 5 μL of 5-fold compound in 10% DMSO. And the mixed solution was incubated at room temperature for 10 min.
4) 10 μL of 2.5-fold substrate solution was added to the 384-well reaction plate.
5) Kinase reaction and termination: the mixed solution was incubated at 28° C. for a certain period of time, and 25 μL of stop solution was added to stop the reaction.
2.4 Data Reading of Caliper EZ Reader II
2.5 Calculation of Percent Inhibition and IC50
1) Percent conversion data were copied from the Caliper EZ Reader. […]

Sequence of KIT kinase (P10721 26-976): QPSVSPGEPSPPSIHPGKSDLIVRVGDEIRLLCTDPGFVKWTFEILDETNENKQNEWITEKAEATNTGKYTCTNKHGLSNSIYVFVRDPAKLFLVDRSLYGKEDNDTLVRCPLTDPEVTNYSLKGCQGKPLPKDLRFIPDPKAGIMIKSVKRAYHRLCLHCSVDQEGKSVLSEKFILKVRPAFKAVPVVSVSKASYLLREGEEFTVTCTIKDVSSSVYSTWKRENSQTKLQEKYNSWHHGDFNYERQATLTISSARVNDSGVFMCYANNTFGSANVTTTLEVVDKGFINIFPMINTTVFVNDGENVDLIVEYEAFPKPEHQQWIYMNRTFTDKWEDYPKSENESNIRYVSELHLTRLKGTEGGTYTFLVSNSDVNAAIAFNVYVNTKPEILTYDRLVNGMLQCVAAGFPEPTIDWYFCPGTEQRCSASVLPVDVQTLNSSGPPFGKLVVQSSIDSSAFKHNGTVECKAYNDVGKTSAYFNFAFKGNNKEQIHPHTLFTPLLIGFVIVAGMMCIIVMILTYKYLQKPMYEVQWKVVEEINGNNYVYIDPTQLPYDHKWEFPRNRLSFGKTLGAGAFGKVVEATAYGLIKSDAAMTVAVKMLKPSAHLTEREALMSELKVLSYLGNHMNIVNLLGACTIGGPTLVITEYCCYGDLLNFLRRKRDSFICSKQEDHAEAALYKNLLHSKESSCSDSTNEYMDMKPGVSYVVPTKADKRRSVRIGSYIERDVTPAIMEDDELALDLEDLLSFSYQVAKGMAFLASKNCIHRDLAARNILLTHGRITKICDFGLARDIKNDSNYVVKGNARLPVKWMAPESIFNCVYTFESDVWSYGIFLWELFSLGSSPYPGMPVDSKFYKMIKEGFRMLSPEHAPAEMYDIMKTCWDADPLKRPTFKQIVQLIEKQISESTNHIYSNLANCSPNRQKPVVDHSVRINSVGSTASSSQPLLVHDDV

Work on `Cc1nc(-c2cnc3n(c2=O)CCCN3C)ccc1Oc1ccnc(-c2cnn(C)c2)c1` [Example 1, 9-methyl-3-(6-methyl-5-((2-(1-methyl-1H-pyrazol-4-yl)pyridin-4-yl)oxy)pyridin-2-yl)-6,7,8,9-tetrahydro-4H-pyrimido[1,2-a]pyrimidin-4-one] yielded an IC50 [1] greater than 2 µM, an IC50 [2] greater than 18 µM and an IC50 [3] greater than 6 µM. For the same compound, the IC50 (KIT kinase) was 0.365 µM.
Compound `CCN1CCCn2c1ncc(-c1ccc(Oc3ccnc(-c4cnn(C)c4)c3)c(C)n1)c2=O` [Example 4] has an IC50 [1] of 0.436 µM, an IC50 [2] greater than 2 µM and an IC50 [3] of 1.81 µM. For the same compound, the IC50 (KIT kinase) was 0.0205 µM.
